Results published in PubChem BioAssay AID1963851 (Molecular Pharmacology Branch, DTP, NCI, 2024).

Tested on: 188146-221-R-J1-PDC complex spheroid viability
Assay: Anticancer human tumor 188146-221-R-J1-PDC patient-derived colon adenocarcinoma cell line growth inhibition [POLQ]
Settings: for IC50: curve of first compound; for viability, T/C: stronger effect = lower value
In short: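 Three-cell-type spheroids modelling solid tumor plus stroma served as the readout system; POL inhibitors were tested individually and in combination, concentration ranges set by clinical Cmax where known.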

[1] = second compound 0.0316 µM, first compound 0.0316 µM
[2] = second compound 0.0316 µM, first compound 0.1 µM
[3] = second compound 0.0316 µM, first compound 0.316 µM
[4] = second compound 0.0316 µM, first compound 1 µM
[5] = second compound 0.0316 µM, first compound 3.16 µM
[6] = second compound 0.0316 µM, first compound 10 µM
[7] = second compound 0.1 µM, first compound 0.0316 µM
[8] = second compound 0.1 µM, first compound 0.1 µM
[9] = second compound 0.1 µM, first compound 0.316 µM
[10] = second compound 0.1 µM, first compound 1 µM
[11] = second compound 0.1 µM, first compound 3.16 µM
[12] = second compound 0.1 µM, first compound 10 µM
[13] = second compound 0.316 µM, first compound 0.0316 µM
[14] = second compound 0.316 µM, first compound 0.1 µM
[15] = second compound 0.316 µM, first compound 0.316 µM
[16] = second compound 0.316 µM, first compound 1 µM
[17] = second compound 0.316 µM, first compound 3.16 µM
[18] = second compound 0.316 µM, first compound 10 µM
[19] = second compound 1 µM, first compound 0.0316 µM
[20] = second compound 1 µM, first compound 0.1 µM
[21] = second compound 1 µM, first compound 0.316 µM
[22] = second compound 1 µM, first compound 1 µM
[23] = second compound 1 µM, first compound 3.16 µM
[24] = second compound 1 µM, first compound 10 µM
[25] = second compound 3.16 µM, first compound 0.0316 µM
[26] = second compound 3.16 µM, first compound 0.1 µM
[27] = second compound 3.16 µM, first compound 0.316 µM
[28] = second compound 3.16 µM, first compound 1 µM
[29] = second compound 3.16 µM, first compound 3.16 µM
[30] = second compound 3.16 µM, first compound 10 µM
[31] = second compound 10 µM, first compound 0.0316 µM
[32] = second compound 10 µM, first compound 0.1 µM
[33] = second compound 10 µM, first compound 0.316 µM
[34] = second compound 10 µM, first compound 1 µM
[35] = second compound 10 µM, first compound 3.16 µM
[36] = second compound 10 µM, first compound 10 µM
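Note: spheroids exposed to compounds for seven days.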
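Throughout, for viability, T/C: 100% = DMSO vehicle control viability.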

For CCc1cc2c(N3CCc4c(cc(Cn5ccnc5)cc4-c4cn(C)nc4C(F)(F)F)C3=O)ccnc2c(OC)n1 + Cc1cccc(N(C)C(=O)C2C(O)CCN2c2nc(C)cc(C(F)(F)F)c2C#N)c1, the IC50 (second compound 0.0316 µM) was 9010 nM, the IC50 (second compound 0.1 µM) was > 10000 nM and the IC50 (second compound 0.316 µM) was 8880 nM. The IC50 (second compound 1 µM) was 7870 nM, the IC50 (second compound 3.16 µM) was 8270 nM and the IC50 (second compound 10 µM) was 5920 nM. For the same compound, the viability, T/C [1] was 90.5%, the viability, T/C [2] was 92% and the viability, T/C [3] was 93.5%. The viability, T/C [4] was 102%, the viability, T/C [5] was 67.8% and the viability, T/C [6] was 48.2%. It also gave a viability, T/C [7] of 117%, a viability, T/C [8] of 78.8% and a viability, T/C [9] of 97.8%. For the same compound, the viability, T/C [10] was 90.8%, the viability, T/C [11] was 77.8% and the viability, T/C [12] was 49.8%. For the same compound, the viability, T/C [13] was 107%, the viability, T/C [14] was 114% and the viability, T/C [15] was 85.2%. For the same compound, the viability, T/C [16] was 78.6%, the viability, T/C [17] was 66.5% and the viability, T/C [18] was 47.1%. It also gave a viability, T/C [19] of 107%, a viability, T/C [20] of 98.2% and a viability, T/C [21] of 91.5%. The viability, T/C [22] was 105%, the viability, T/C [23] was 71% and the viability, T/C [24] was 44.4%. For the same compound, the viability, T/C [25] was 90.1%, the viability, T/C [26] was 91.4% and the viability, T/C [27] was 91.6%. For the same compound, the viability, T/C [28] was 81.7%, the viability, T/C [29] was 66.6% and the viability, T/C [30] was 46.7%. It also gave a viability, T/C [31] of 92.5%, a viability, T/C [32] of 82.5% and a viability, T/C [33] of 74.1%. The viability, T/C [34] was 69.6%, the viability, T/C [35] was 61.2% and the viability, T/C [36] was 40.7%.
Work on COc1cc(C2c3cc4c(cc3C(OC3OC5COC(C)OC5C(O)C3O)C3COC(=O)C23)OCO4)cc(OC)c1O (centres undefined) + Nc1ccc(C#CCN(C(=O)Cc2ncc(C(F)(F)F)cc2C(F)(F)F)c2ccc(F)cc2)nn1 yielded an IC50 (second compound 0.0316 µM) of 597 nM, an IC50 (second compound 0.1 µM) of 789 nM and an IC50 (second compound 0.316 µM) of 582 nM. It also gave an IC50 (second compound 1 µM) of 626 nM, an IC50 (second compound 3.16 µM) of 625 nM and an IC50 (second compound 10 µM) of 633 nM. It also gave a viability, T/C [1] of 87.2%, a viability, T/C [2] of 95.2% and a viability, T/C [3] of 61.4%. It also gave a viability, T/C [4] of 40.7%, a viability, T/C [5] of 24.9% and a viability, T/C [6] of 22.9%. It also gave a viability, T/C [7] of 89.5%, a viability, T/C [8] of 87.3% and a viability, T/C [9] of 65.9%. It also gave a viability, T/C [10] of 48.2%, a viability, T/C [11] of 27.7% and a viability, T/C [12] of 28.5%. It also gave a viability, T/C [13] of 97.1%, a viability, T/C [14] of 97.8% and a viability, T/C [15] of 66.3%. It also gave a viability, T/C [16] of 35.5%, a viability, T/C [17] of 25% and a viability, T/C [18] of 21.4%. For the same compound, the viability, T/C [19] was 97.5%, the viability, T/C [20] was 79.3% and the viability, T/C [21] was 67.6%. The viability, T/C [22] was 39.4%, the viability, T/C [23] was 24.6% and the viability, T/C [24] was 22.2%. It also gave a viability, T/C [25] of 100%, a viability, T/C [26] of 88.5% and a viability, T/C [27] of 64.2%. It also gave a viability, T/C [28] of 40.7%, a viability, T/C [29] of 27.1% and a viability, T/C [30] of 25%. For the same compound, the viability, T/C [31] was 86.8%, the viability, T/C [32] was 78.4% and the viability, T/C [33] was 58.8%. The viability, T/C [34] was 47.4%, the viability, T/C [35] was 25% and the viability, T/C [36] was 29%.
